Laboratory results as given in ChEMBL document CHEMBL4152373 (Bioorg Med Chem, 2018).

Columns and labels:
[1] = Octanol-PBS buffer partition coefficient, log D of the compound at pH 7.4 by HPLC method
[2] = Octanol-PBS buffer partition coefficient, log D of the compound at pH 7.4 by shake flask method
[3] = Fraction unbound in rat plasma at 5 uM after 4 hrs by equilibrium dialysis method
[4] = Fraction unbound in mouse plasma at 5 uM after 4 hrs by equilibrium dialysis method
Rattus norvegicus [5] = assay: Unbound clearance in Sprague-Dawley rat at 1 mg/kg, iv administered as single dose by LC-MS/MS analysis; format: ADME, organism-based; conditions: in vivo
[6] = Half life in Sprague-Dawley rat at 1 mg/kg, iv administered as single dose by LC-MS/MS analysis; format: ADME, organism-based; conditions: in vivo
[7] = Oral bioavailability in Sprague-Dawley rat at 3 mg/kg administered via gavage as single dose by LC-MS/MS analysis; format: ADME, organism-based; conditions: in vivo
Rattus norvegicus [8] = assay: Dose normalized unbound AUC in Sprague-Dawley rat at 3 mg/kg, po administered via gavage as single dose by LC-MS/MS analysis; format: ADME, organism-based; conditions: in vivo
Mus musculus [9] = assay: Dose normalized unbound AUC in C57Bl/6J mouse at 50 mg/kg, po administered via gavage as single dose by LC-MS/MS analysis; format: ADME, organism-based; conditions: in vivo
Mus musculus [10] = assay: Antidiabetic activity in C57Bl/6J mouse assessed as inhibition of blood glucose AUC (0 to 120 mins) at 50 mg/kg, po treated prior to glucose challenge by OGTT relative to control; format: functional
Mus musculus [11] = assay: Dose normalized unbound AUC in C57Bl/6J mouse at 3 mg/kg, po administered via gavage as single dose by LC-MS/MS analysis; format: ADME, organism-based; conditions: in vivo
Mus musculus [12] = assay: Antidiabetic activity in C57Bl/6J mouse assessed as inhibition of blood glucose AUC (0 to 120 mins) at […], po treated prior to glucose challenge by OGTT relative to control; format: functional; conditions: AT84, po

| logD [1] | logD [2] | fraction unbound at 4 h, 5 µM [3] | fraction unbound at 4 h, 5 µM [4] | CL free (Rattus norvegicus [5]) [mL/min/kg] | half-life [6] [h] | bioavailability [7] [%] | fAUC/dose (Rattus norvegicus [8]) [µM·min] | fAUC/dose (Mus musculus [9]) [µM·min] | fAUC/dose (Mus musculus [11]) [µM·min] | SMILES | inhibition in vivo at 50 mg/kg (Mus musculus [10]) [%] | inhibition in vivo at […] (Mus musculus [12]) [%] |
| --- | --- | --- | --- | --- | --- | --- | --- | --- | --- | --- | --- | --- |
| 2.3 | – | – | – | – | – | – | – | – | – | CN(C(=O)[C@H](CC(=O)O)Cc1ccccc1)c1nc(-c2ccccc2Cl)cs1 | – | – |
| 2.13 to 2.3 | 2.31 | 0.0008 | 0.0015 | 738 | 8.03 | 77 | 2.4 | 2 | – | CN(C(=O)[C@@H](CC(=O)O)Cc1ccccc1)c1nc(-c2ccccc2Cl)cs1 | -8 | – |
| 2.74 to 2.9 | 2.87 | – | – | – | – | – | – | – | – | CN(C(=O)[C@@H](CC(=O)O)CC1CCCC1)c1nc(-c2ccccc2Cl)cs1 | – | – |
| 2.2 | – | 0.0066 | 0.0107 | 342 | 7.18 | 35 | 2.1 | 4.7 | – | COc1ccc(-c2ccccc2-c2csc(N(C(=O)[C@@H](CC(=O)O)CC(C)C)C3CC3)n2)cn1 | 19 | – |
| 2.4 | – | 0.0057 | 0.0075 | 1091 | 4.67 | 29 | 0.55 | 3.3 | – | CC(C)C[C@H](CC(=O)O)C(=O)N(c1nc(-c2ccccc2-c2ccc(-n3cccn3)nc2)cs1)C1CC1 | 26 | – |
| 2.3 | – | 0.0016 | 0.0025 | 1044 | 5.32 | 52 | 0.7 | 4.7 | – | O=C(O)C[C@@H](Cc1ccccc1)C(=O)N(c1nc(-c2ccccc2Cl)cs1)C1CC1 | 1 | – |
| 3.9 to 4.08 | 3.94 | 0.0062 | 0.0052 | 6666 | 3.67 | 15 | 0.08 | – | 0.045 | CC(C)[C@H](C(=O)Nc1nccs1)c1ccc(Cl)cc1 | – | 7 |
| 1.27 to 1.3 | 1.27 | – | – | – | – | – | – | – | – | CN(C(=O)[C@@H](CC(=O)O)CC1CCOCC1)c1nc(-c2ccccc2Cl)cs1 | – | – |
| 3 | – | 0.0001 | 0.0001 | 2800 | 9.83 | 47 | 0.26 | 0.32 | – | O=C(O)C[C@@H](Cc1ccccc1)C(=O)N(c1nc(-c2cc(Cl)ccc2Cl)cs1)C1CC1 | 5 | – |
| 3.1 | – | 0.0013 | 0.0014 | 6692 | 2.58 | 25 | 0.07 | 0.53 | – | O=C(O)C[C@@H](CC1CCCC1)C(=O)N(c1nc(-c2ccccc2-c2ccc(-n3cccn3)nc2)cs1)C1CC1 | 40 | – |
| 2.5 | – | 0.0026 | 0.0041 | 2738 | 9.65 | 38 | 0.26 | 1.2 | – | COc1ccc(-c2ccc(Cl)cc2-c2csc(N(C(=O)[C@@H](CC(=O)O)Cc3ccco3)C3CC3)n2)cn1 | 32 | – |
